Measured values published in patent US20250281497A1, “FUSED AMINO PYRIMIDINE COMPOUNDS FOR TREATMENT OF SEIZURE DISORDERS” (Ovid Therapeutics Inc., priority 2024, published 2025).

What was measured:
[1] = tested on: PTZ induced motor seizures; test: Pentylenetetrazol (PTZ) induced convulsions; assay type: in vivo, mice; conditions: 12.5 mg/kg IV pretreatment
KCC3 = target: T1, KCC3 (Homo sapiens, UniProt Q9UHW9); test: Tl+ assay, HEK-293 cells expressing KCC3; assay type: cell-based; conditions: read-out: concentration at which effects on KCC3 were seen (EC50 chart FIG. 1G)
T1 construct: expressed in transfected cells; host or cells: HEK-293
T1 sequence (Q9UHW9 1-1150): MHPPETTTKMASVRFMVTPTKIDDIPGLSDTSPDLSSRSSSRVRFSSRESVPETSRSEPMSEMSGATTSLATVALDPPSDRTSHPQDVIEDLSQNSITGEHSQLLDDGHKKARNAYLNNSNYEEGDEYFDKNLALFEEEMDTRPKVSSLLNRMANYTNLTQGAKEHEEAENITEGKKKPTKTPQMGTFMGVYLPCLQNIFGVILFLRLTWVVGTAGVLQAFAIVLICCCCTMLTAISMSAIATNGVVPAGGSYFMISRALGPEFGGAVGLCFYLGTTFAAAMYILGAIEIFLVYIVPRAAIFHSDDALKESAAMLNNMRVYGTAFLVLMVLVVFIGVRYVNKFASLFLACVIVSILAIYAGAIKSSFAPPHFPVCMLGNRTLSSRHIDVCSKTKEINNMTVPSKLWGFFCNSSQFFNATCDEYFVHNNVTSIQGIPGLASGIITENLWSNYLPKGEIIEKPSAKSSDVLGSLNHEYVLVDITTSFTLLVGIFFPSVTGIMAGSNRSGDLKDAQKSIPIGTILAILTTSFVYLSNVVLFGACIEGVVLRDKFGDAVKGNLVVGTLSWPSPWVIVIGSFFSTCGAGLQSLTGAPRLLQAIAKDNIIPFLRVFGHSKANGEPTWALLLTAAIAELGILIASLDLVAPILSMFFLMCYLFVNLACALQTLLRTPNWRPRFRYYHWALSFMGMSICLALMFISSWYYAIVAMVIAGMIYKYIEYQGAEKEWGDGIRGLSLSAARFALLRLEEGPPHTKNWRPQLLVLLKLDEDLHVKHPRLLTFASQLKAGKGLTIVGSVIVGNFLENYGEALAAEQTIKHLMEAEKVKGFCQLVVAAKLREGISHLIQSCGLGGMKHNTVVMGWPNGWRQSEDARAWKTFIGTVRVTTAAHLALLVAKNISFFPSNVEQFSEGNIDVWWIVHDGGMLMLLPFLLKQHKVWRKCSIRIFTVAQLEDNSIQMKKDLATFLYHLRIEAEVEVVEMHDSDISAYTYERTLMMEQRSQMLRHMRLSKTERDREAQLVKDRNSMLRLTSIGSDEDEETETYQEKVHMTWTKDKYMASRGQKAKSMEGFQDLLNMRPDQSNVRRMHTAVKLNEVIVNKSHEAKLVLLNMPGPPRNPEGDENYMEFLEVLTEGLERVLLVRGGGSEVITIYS
Description: FLIPR TI Flux assay. HEK-293 cells were washed with HBSS, and then incubated with loading buffer containing TI sensitive fluorescent dye (https://www.moleculardevices.com), 20 μM bumetanide 20 μM ouabain and 2.5 mM probenecid for 1 h at room temperature (RT) under control conditions or with drugs in the dark using a FlexStation 3 microplate reader (Molecular Devices) and imaged […] for 30 min. Stimulus buffer was added containing 5 mM K^+/0.5 mM Tl^+ and cells were imaged every 1.5 over a 190 second time course The initial rate Tl^+ uptake (Relative Fluorescence Units (RFU) per second) was determined following addition of the stimulus buffer as outlined previously (Conway et at, 2017, supra) (Lee et at, 2022, supra).
Several studies have shown that the activity and plasma membrane accumulation of KCC2 is potentiated via phosphorylation of S940, a process mediated by the activity of protein kinase C and protein phosphatase 1 (Lee et al., 2011, supra; Lee et al., J Biol Chem 282, 29777-29784 (2007); Moore et al., Proc. Natl. Acad. Sci. U.S.A. 115, 10166-10171 (2018); Moore et al., Trends Neurosci. 40, 555-571 (2017); Silayeva et al., Proc. Natl. Acad. Sci. U.S.A. 112, 3523-3528 (2015)). […] Compared to KCC2, effects on KCC3, KCC4, and NKCC1 were only seen at concentrations more than 35-fold that of KCC2 (>100 μM) (FIG. 1G).

C[C@@H]1CN(c2nc3c(c(Nc4ccc(C5CCCCC5)cc4)n2)COC3)CCO1 [Compound A, (R)—N-(4-cyclohexylphenyl)-2-(2-methylmorpholino)-5,7-dihydrofuro[3,4-d]pyrimidin-4-amine]
dose of PTZ required to induce forelimb clonus ([1]; Control=51.5±3.1): 56.3 ± 3.3 mg/kg | dose of PTZ required to induce hindlimb clonus ([1]; Control=84.5±5.1): 137.4 ± 7.5 mg/kg | EC50 (KCC3): > 100 µM
